How the values were obtained:
Format in all cases: biochemical
[1] = target: T1, Aurora A kinase (Homo sapiens, UniProt O14965); experiment: Aurora A kinase assay ([γ-33P]ATP, CHOCKtide substrate); details: for inhibition at 1 µM: 1.0 μM test compound
T1 construct: purchased Upstate
T1 sequence (O14965 1-403): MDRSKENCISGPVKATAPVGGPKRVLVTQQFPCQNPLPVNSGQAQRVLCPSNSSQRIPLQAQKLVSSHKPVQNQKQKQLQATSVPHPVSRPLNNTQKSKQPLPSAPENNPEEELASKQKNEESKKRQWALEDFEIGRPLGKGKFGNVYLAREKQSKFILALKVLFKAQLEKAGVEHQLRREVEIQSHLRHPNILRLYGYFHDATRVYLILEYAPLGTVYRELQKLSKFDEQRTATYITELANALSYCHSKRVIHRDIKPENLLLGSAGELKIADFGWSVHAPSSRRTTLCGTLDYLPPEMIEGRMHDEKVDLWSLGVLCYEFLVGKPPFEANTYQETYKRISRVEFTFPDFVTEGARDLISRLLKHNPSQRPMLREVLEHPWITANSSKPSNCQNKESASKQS
Protocol: (§1) Inhibition of Aurora Kinase by the compounds disclosed herein was determined by incubating Aurora kinase, substrate, and a test compound together for a period of time followed by quantifying the resultant phosphorylated product. Specifically, in a well of a 96-well round bottom plate, 25 μL of a reaction mixture containing (1) a test compound disclosed herein (diluted from 9 μM to the desired final concentration), [γ-33P]ATP/ATP mix (10 μM), CHOCKtide (1 μg, Genesis Biotech Inc.), and Aurora-A (1 ng, purchased from Upstate); or (2) a test compound disclosed herein (diluted from 9 μM to the desired final concentration), [γ-33P]ATP/ATP mix (40 μM), CHOCKtide (1 μg, Genesis Biotech Inc.), and Aurora-B (2.5 ng, purchased from Cell signaling); was prepared and incubated at 33° C. for 30 minutes. The reaction was then stopped by adding 5 μL of 3% phosphoric acid. The resultant solution (30 μL) was later harvested by a UniFilter Plate GF/B (PerkinElmer) followed by adding 30 μL of the scintillation cocktail (MicroScint 20, PerkinElmer) to the well. The radioactivity retained on the filter membrane was measured by a luminescence counter (PerkinElmer). IC50 value is defined as the concentration of the test compound which achieves a half-maximal inhibition of the kinase activity.

[2] = target: T2, Aurora B kinase (Homo sapiens, UniProt Q96GD4); experiment: Aurora B kinase assay ([γ-33P]ATP, CHOCKtide substrate); details: for inhibition at 1 µM: 1.0 μM test compound
T2 construct: purchased Cell signaling
T2 sequence (Q96GD4 whole entry): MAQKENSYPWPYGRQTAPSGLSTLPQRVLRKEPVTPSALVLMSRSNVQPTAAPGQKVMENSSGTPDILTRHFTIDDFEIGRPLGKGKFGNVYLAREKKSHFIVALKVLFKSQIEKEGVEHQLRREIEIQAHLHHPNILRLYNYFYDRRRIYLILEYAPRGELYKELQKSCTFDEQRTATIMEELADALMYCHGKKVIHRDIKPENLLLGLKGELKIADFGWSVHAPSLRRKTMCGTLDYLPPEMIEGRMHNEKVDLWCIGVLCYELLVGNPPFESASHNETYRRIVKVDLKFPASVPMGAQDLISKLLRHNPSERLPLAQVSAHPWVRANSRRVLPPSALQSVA
Protocol: as §1

[3] = target: T3, c-Met kinase (Homo sapiens, UniProt P08581); experiment: c-Met kinase assay (33P incorporation into Poly(Glu-Tyr)); details: 500 nM test compound
T3 construct: recombinant N-terminal 6×His-tagged c-Met kinase domain construct expressed from baculovirus; 6xHis (N); made in house
T3 sequence (P08581 1078-1345 limits assumed): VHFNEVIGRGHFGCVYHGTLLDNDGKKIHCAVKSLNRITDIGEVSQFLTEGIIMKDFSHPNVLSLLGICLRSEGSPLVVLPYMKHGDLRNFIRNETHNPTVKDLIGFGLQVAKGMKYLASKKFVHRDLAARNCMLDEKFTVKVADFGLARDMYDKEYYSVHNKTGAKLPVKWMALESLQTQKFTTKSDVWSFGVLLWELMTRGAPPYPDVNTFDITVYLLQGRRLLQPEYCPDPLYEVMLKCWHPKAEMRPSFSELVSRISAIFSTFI
Protocol: Inhibition of c-Met kinase activity by compounds disclosed herein was quantified by measuring the amount of [^33P] incorporated into the substrate in the presence of a test compound. Briefly, a reaction mixture of 25 μL final volume containing 5 ng of c-Met kinase (obtained by purifying recombinant N-terminal 6×His-tagged c-Met kinase domain construct expressed from baculovirus), 1 μg of the substrate (Poly (Glu-Tyr, 4:1, Sigma)), kinase reaction buffer (20 mM MOPS pH 7.0, 1 mM EDTA, 5% glycerol, 0.01% Brij-35, 0.1% β-mercaptoethanol, 1 mg/mL BSA, 100 μM ATP, 0.1 μCi per well [^33P]-γ-ATP (2,500-3,000 Ci/mmol)), and a test compound (500 nM, diluted with 4% DMSO) or DMSO (as the control) was incubated at 30° C. for 30 minutes. The reaction was stopped by adding 5 μL of 3% phosphoric acid solution. The resultant reaction solution was then harvested onto a filter plate (UniFilter-96 GF/B, PerkinElmer), washed 20 times for 5 min with d.d. H2O, and followed by the addition of 30 μL of MicroScint™-20 Cocktail (PerkinElmer). The plate was then sealed and counted using a TopCount scintillation detector (PerkinElmer). The percentage of inhibition rate of the test compound was calculated by dividing the retained radioactivity of the test sample with the retained radioactivity of the control sample and shown in Table 3.

| inhibition at 1 µM [1] [%] | inhibition at 1 µM [2] [%] | inhibition at 0.5 µM [3] [%] | IC50 [2] [nM] | IC50 [1] [nM] | SMILES |
| --- | --- | --- | --- | --- | --- |
| 52.3 | 15.2 | 10.1 |  |  | CCOC(=O)CCc1c(/C=C2\C(=O)Nc3ccc(NCc4ccc(F)cc4)cc32)[nH]c2c1C(=O)CCC2 [DCB-70176, (Z)-ethyl 3-(2-((5-(4-fluorobenzylamino)-2-oxoindolin-3-ylidene)methyl)-4-oxo-4,5,6,7-tetrahydro-1H-indol-3-yl)propanoate] |
| 81.6 | 22.5 | 18.8 |  |  | CCOC(=O)CCc1c(/C=C2\C(=O)Nc3ccc(/N=C/c4ccncc4)cc32)[nH]c2c1C(=O)CCC2 [DCB-70177, ethyl 3-(4-oxo-2-((Z)-(2-oxo-5-((E)-pyridin-4-ylmethyleneamino)indolin-3-ylidene)methyl)-4,5,6,7-tetrahydro-1H-indol-3-yl)propanoate] |
| 31.2 | 1.9 | 7.8 |  |  | CCOC(=O)CCc1c(/C=C2\C(=O)Nc3ccc(/N=C/c4ccc(F)c(C(F)(F)F)c4)cc32)[nH]c2c1C(=O)CCC2 [DCB-70178, ethyl 3-(2-((Z)-(5-((E)-4-fluoro-3-(trifluoromethyl)benzylideneamino)-2-oxoindolin-3-ylidene)methyl)-4-oxo-4,5,6,7-tetrahydro-1H-indol-3-yl)propanoate] |
| 59.9 | 40.1 | 17.9 |  |  | CCOC(=O)CCc1c(/C=C2\C(=O)Nc3ccc(NC(C)c4ccccc4)cc32)[nH]c2c1C(=O)CCC2 (centres unmarked) [DCB-70179, (Z)-ethyl 3-(4-oxo-2-((2-oxo-5-(1-phenylethylamino)indolin-3-ylidene)methyl)-4,5,6,7-tetrahydro-1H-indol-3-yl)propanoate] |
| 71.5 | 47.4 | 5.1 | 866 |  | CCOC(=O)CCc1c(/C=C2\C(=O)Nc3ccc(/N=C/c4ccsc4)cc32)[nH]c2c1C(=O)CCC2 [DCB-70180, ethyl 3-(4-oxo-2-((Z)-(2-oxo-5-((E)-thiophen-3-ylmethyleneamino)indolin-3-ylidene)methyl)-4,5,6,7-tetrahydro-1H-indol-3-yl)propanoate] |
| 13.2 | 13.9 | 1.5 |  |  | CCOC(=O)CCc1c(/C=C2\C(=O)Nc3ccc(NC(=O)Nc4ccc(F)cc4F)cc32)[nH]c2c1C(=O)CCC2 [DCB-70183, (Z)-ethyl 3-(2-((5-(3-(2,4-difluorophenyl)ureido)-2-oxoindolin-3-ylidene)methyl)-4-oxo-4,5,6,7-tetrahydro-1H-indol-3-yl)propanoate] |
| 6.6 | 6.8 | 8.7 |  |  | CCOC(=O)CCc1c(/C=C2\C(=O)Nc3ccc(NC(=O)Nc4ccc(Cl)cc4Cl)cc32)[nH]c2c1C(=O)CCC2 [DCB-70184, (Z)-ethyl 3-(2-((5-(3-(2,4-dichlorophenyl)ureido)-2-oxoindolin-3-ylidene)methyl)-4-oxo-4,5,6,7-tetrahydro-1H-indol-3-yl)propanoate] |
| 66.1 | 47.4 | 9.6 |  |  | Nc1ccccc1NC(=O)CCc1c(/C=C2\C(=O)Nc3ccc(NS(=O)(=O)c4ccccc4)cc32)[nH]c2c1C(=O)CCC2 [DCB-70186, (Z)-N-(2-aminophenyl)-3-(4-oxo-2-((2-oxo-5-(phenylsulfonamido)indolin-3-ylidene)methyl)-4,5,6,7-tetrahydro-1H-indol-3-yl)propanamide] |
| 62.8 | 17.5 | 8.8 |  |  | CC(=O)c1c(C)[nH]c(/C=C2\C(=O)Nc3ccc(F)cc32)c1CCC(=O)O [DCB-70187, (Z)-3-(4-acetyl-2-((5-fluoro-2-oxoindolin-3-ylidene)methyl)-5-methyl-1H-pyrrol-3-yl)propanoic acid] |
| 95.5 | 53.2 | 51.1 | 759 | 31.7 | CC(=O)c1c(C)[nH]c(/C=C2\C(=O)Nc3ccc(S(=O)(=O)N4CCc5ccccc54)cc32)c1CCC(=O)O [DCB-70188, (Z)-3-(4-acetyl-2-((5-(indolin-1-ylsulfonyl)-2-oxoindolin-3-ylidene)methyl)-5-methyl-1H-pyrrol-3-yl)propanoic acid] |
| 91.4 | 84 | 14 | 177 | 77.9 | CCOC(=O)CCc1c(/C=C2\C(=O)Nc3ccc(NS(=O)(=O)c4cc(F)cc(F)c4)cc32)[nH]c2c1C(=O)CCC2 [DCB-70189, (Z)-ethyl 3-(2-((5-(3,5-difluorophenylsulfonamido)-2-oxoindolin-3-ylidene)methyl)-4-oxo-4,5,6,7-tetrahydro-1H-indol-3-yl)propanoate] |
| 97 | 80 | 10 | 246 | 31.5 | O=C(O)CCc1c(/C=C2\C(=O)Nc3ccc(NS(=O)(=O)c4cc(F)cc(F)c4)cc32)[nH]c2c1C(=O)CCC2 [DCB-70190, (Z)-3-(2-((5-(3,5-difluorophenylsulfonamido)-2-oxoindolin-3-ylidene)methyl)-4-oxo-4,5,6,7-tetrahydro-1H-indol-3-yl)propanoic acid] |
| 20.4 | 21.2 | 19 |  |  | CCOC(=O)CCc1c(/C=C2\C(=O)Nc3ccc(NS(=O)(=O)c4ccc5ccccc5c4)cc32)[nH]c2c1C(=O)CCC2 [DCB-70191, (Z)-ethyl 3-(2-((5-(naphthalene-2-sulfonamido)-2-oxoindolin-3-ylidene)methyl)-4-oxo-4,5,6,7-tetrahydro-1H-indol-3-yl)propanoate] |
| 40.6 | 21 | 9.9 |  |  | O=C(O)CCc1c(/C=C2\C(=O)Nc3ccc(NS(=O)(=O)c4ccc5ccccc5c4)cc32)[nH]c2c1C(=O)CCC2 [DCB-70192, (Z)-3-(2-((5-(naphthalene-2-sulfonamido)-2-oxoindolin-3-ylidene)methyl)-4-oxo-4,5,6,7-tetrahydro-1H-indol-3-yl)propanoic acid] |
| 74.3 | 36.7 | 11.2 |  |  | CCOC(=O)CCc1c(/C=C2\C(=O)Nc3ccc(NS(=O)(=O)c4cc(Cl)cc(Cl)c4)cc32)[nH]c2c1C(=O)CCC2 [DCB-70193, (Z)-ethyl 3-(2-((5-(3,5-dichlorophenylsulfonamido)-2-oxoindolin-3-ylidene)methyl)-4-oxo-4,5,6,7-tetrahydro-1H-indol-3-yl)propanoate] |
| 85.3 | 41.7 | 12.9 |  | 151 | O=C(O)CCc1c(/C=C2\C(=O)Nc3ccc(NS(=O)(=O)c4cc(Cl)cc(Cl)c4)cc32)[nH]c2c1C(=O)CCC2 [DCB-70194, (Z)-3-(2-((5-(3,5-dichlorophenylsulfonamido)-2-oxoindolin-3-ylidene)methyl)-4-oxo-4,5,6,7-tetrahydro-1H-indol-3-yl)propanoic acid] |
| 73.1 | 47.5 | 15.3 |  |  | CCOC(=O)CCc1c(/C=C2\C(=O)Nc3ccc(NS(=O)(=O)c4cccc(OC)c4)cc32)[nH]c2c1C(=O)CCC2 [DCB-70195, (Z)-ethyl 3-(2-((5-(3-methoxyphenylsulfonamido)-2-oxoindolin-3-ylidene)methyl)-4-oxo-4,5,6,7-tetrahydro-1H-indol-3-yl)propanoate] |
